In patent US20060052350A1, “Crystalline forms of 1,24(S)-dihydroxy vitamin D2” (priority 2004, published 2006):

Experiment: Stability of the crystalline forms exposed to 100% relative humidity (resulting form identified by powder XRD)
Format: physicochemical
Conditions: 100% relative humidity for about 1 week at room temperature
Experimental: The crystal forms were identified using an Applied Research Laboratory (SCINTAG) powder X-ray diffractometer model X'TRA equipped with a solid state detector. The crystal samples were analyzed using a round aluminum sample holder with zero background and copper radiation of 1.5418 Å.

Maintenance of crystal structure (no transformation to another crystalline form) on humidity exposure: maintain their crystal structure
SMILES: C=C1/C(=C\C=C2/CCCC3(C)C2CCC3[C@H](C)/C=C/[C@@](C)(O)C(C)C)C[C@@H](O)C[C@@H]1O (stereo partly drawn) [Form B, 1,24(S)-dihydroxy vitamin D2]
